In patent EP0445920A2, “Use of ethoxy phenoxy acetic acid derivatives against diabetes” (IMPERIAL CHEMICAL INDUSTRIES PLC, priority 1990, dated 1991):

Test system: oral glucose tolerance in rats
Experiment: Oral glucose tolerance test in fasted rats (blood glucose by glucose oxidase method)
Assay type: in vivo, Male, Alderley Park, Wistar rats
Conditions: rats fasted 24 hours, Glibenclamide 5 mg/kg p.o. at -2.0 h, Compound A 0.1 mg/kg p.o. at -0.5 h, M ± SEM, eight rats/group; for Glucose levels, time relative to oral glucose (minutes) 0: 0 min (before oral glucose load 1g/kg); for Glucose levels, time relative to oral glucose (minutes) 20: 20 min after oral glucose load 1g/kg; for Glucose levels, time relative to oral glucose (minutes) 60: 60 min after oral glucose load 1g/kg; for Glucose levels, time relative to oral glucose (minutes) 120: 120 min after oral glucose load 1g/kg
Description: Effects of (S)-4-[2-(2-hydroxy-3-phenoxypropylamino)ethoxy]-N-(2-methoxyethyl)phenoxyacetamide on glibenclamide induced improvements in oral glucose tolerance in rats Glibenclamide is a sulphonylurea commonly used for the treatment of non-insulin dependent diabetes. The effects of (S)-4-[2-(2-hydroxy-3-phenoxypropylamino)ethoxy]-N-(2-methoxyethyl) phenoxyacetamide (compound A) were assessed on glibenclamide induced improvements in oral glucose tolerance. Male, Alderley Park, Wistar rats (weight range 125-150 g) were caged in groups of four in a room with normal lighting, at a temperature of 22°C. The animals were allowed free access to water and chow during an acclimatisation period of five days. At the end of this period the rats were fasted for 24 hours. After fasting a group of 8 rats was anaesthetised and a cardiac blood sample taken. The remaining rats were dosed orally according to the schedule below: [table] Glibenclamide and Compound A were dissolved in an aqueous 0.025% solution of polysorbate. The dosage volume was 0.5 ml/100 g body weight. Thirty minutes after dosing according to the schedule above a further eight rats from each group were bled. The remaining rats were then given an oral glucose load (1g/kg) dosed as a 20% solution of D-glucose (0.5 ml/100 g). Groups of eight rats for each treatment were then anaesthetised and bled 20, 60 and 120 minutes after the glucose load. Glucose levels were assayed using a glucose oxidase method on a KDK glucose analyser (Clandon).

`COCCNC(=O)COc1ccc(OCCNC[C@H](O)COc2ccccc2)cc1` [Compound A, (S)-4-[2-(2-hydroxy-3-phenoxypropylamino)ethoxy]-N-(2-methoxyethyl) phenoxyacetamide] was tested, and the “Glucose levels, time relative to oral glucose (minutes) 0” value was 2.77 ± 0.10 mmol, the “Glucose levels, time relative to oral glucose (minutes) 20” value was 6.16 ± 0.23 mmol and the “Glucose levels, time relative to oral glucose (minutes) 60” value was 5.37 ± 0.28 mmol. For the same compound, the “Glucose levels, time relative to oral glucose (minutes) 120” value was 4.99 ± 0.20 mmol.
`COc1ccc(Cl)cc1C(=O)NCCc1ccc(S(=O)(=O)NC(=O)NC2CCCCC2)cc1` [Glibenclamide] was tested, and the “Glucose levels, time relative to oral glucose (minutes) 0” value was 3.16 ± 0.13 mmol, the “Glucose levels, time relative to oral glucose (minutes) 20” value was 7.77 ± 0.45 mmol and the “Glucose levels, time relative to oral glucose (minutes) 60” value was 4.4 ± 0.38 mmol. The “Glucose levels, time relative to oral glucose (minutes) 120” value was 3.67 ± 0.27 mmol.
